This note sets out measurements from PubChem BioAssay (NCI).

Values joined by “and” are separate entries in the source; they are usually repeats but may differ in a detail not shown here. Identical values can stand only once.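 96-well plates; 48 h exposure; 5 concentrations. Endpoints by linear interpolation between flanking doses. Not reached: highest tested concentration assigned. The concentration for 50% growth inhibition is given as GI50. TGI denotes the concentration required for complete inhibition of growth.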

Test systems include NCI-H23 lung; SNB-75 CNS; SF-539 CNS; ACHN renal; NCI-H226 lung; SNB-19 CNS; EKVX NSCLC; MDA-MB-231 breast; KM12 colon; NCI/ADR-RES ovarian.
What all share (experiment): inhibition of tumour cell growth, NCI panel, 48 h

Turning to `COc1ccc2cc1Oc1ccc(cc1)CC1c3c(cc(OC)c4c3Oc3cc5c(cc3O4)CCNC5C2)CCN1C` (stereo not drawn), the GI50 in the assay on NCI-H23 lung was 1.53 µM; in the assay on SNB-75 CNS it was 1.68 µM; in the assay with SF-539 CNS, 1.9 µM; with ACHN renal, 1.49 µM; in the assay on NCI-H226 lung, 2.3 µM; in the assay with EKVX NSCLC it was 1.71 µM. The GI50 is 1.73 µM in the assay on MDA-MB-231 breast, 1.46 µM in the assay with KM12 colon and 1.55 µM in the assay with NCI/ADR-RES ovarian. Further, the TGI in the assay with NCI-H23 lung is 4.54 µM and 3.22 µM; in the assay with SNB-75 CNS it was 3.06 µM; in the assay on SF-539 CNS, 3.23 µM and 3.69 µM; in the assay on ACHN renal, 4.01 µM and 2.81 µM; with NCI-H226 lung, 4.18 µM; in the assay on SNB-19 CNS it was 4.32 µM. For the same molecule, the TGI in the assay on EKVX NSCLC was 3.73 µM and 3.19 µM; in the assay with MDA-MB-231 breast, 3.35 µM; with KM12 colon, 3.33 µM and 2.85 µM; with NCI/ADR-RES ovarian, 3.62 µM and 3.19 µM.
`CC(=O)O[C@H]1C(=O)[C@@]2(C)C([C@H](OC(=O)c3ccccc3)[C@]3(O)C[C@H](OC(=O)[C@H](O)[C@@H](NC(=O)c4ccc(Cl)cc4)c4ccccc4)C(C)=C1C3(C)C)C1(OC(C)=O)CO[C@@H]1C[C@@H]2O` (stereo partly drawn): the TGI was 25 µM and > 100 µM in the assay with NCI-H23 lung; 0.603 µM and 0.178 µM in the assay on SNB-75 CNS; 0.273 µM and 0.0407 µM in the assay on SF-539 CNS; 25 µM and > 100 µM in the assay with ACHN renal; 25 µM with NCI-H226 lung; 25 µM and > 100 µM in the assay on SNB-19 CNS. Moreover, the TGI in the assay on EKVX NSCLC was 25 µM and > 100 µM; in the assay on MDA-MB-231 breast, 25 µM; with KM12 colon, 25 µM; in the assay with NCI/ADR-RES ovarian it was 25 µM. Also, the GI50 was 0.0119 µM in the assay on SF-539 CNS, 10.3 µM in the assay on ACHN renal, 0.0849 µM with SNB-19 CNS and 1.11 µM in the assay on EKVX NSCLC.
As for `O=[N+]([O-])/C=C/c1cn(CCCCCCCCn2cc(/C=C/[N+](=O)[O-])c3ccccc32)c2ccccc12`, the TGI with NCI-H23 lung, in the assay with SNB-75 CNS, with SF-539 CNS, with ACHN renal, with NCI-H226 lung and in the assay with SNB-19 CNS was over 10 µM each time. Besides, the TGI in the assay on EKVX NSCLC, in the assay on MDA-MB-231 breast, with KM12 colon and in the assay on NCI/ADR-RES ovarian was over 10 µM each time.
Turning to `O=[N+]([O-])/C(=C/C=C/c1ccccc1)c1ccccc1`, the GI50 with NCI-H23 lung was 2.25 µM; in the assay on SNB-75 CNS, 2.22 µM; in the assay with SF-539 CNS it was 1.86 µM; with ACHN renal, 2.14 µM; in the assay on NCI-H226 lung, 6.07 µM; with SNB-19 CNS it was 3.33 µM. Moreover, the GI50 was 6.03 µM with EKVX NSCLC, 1.92 µM in the assay on MDA-MB-231 breast, 2.04 µM in the assay with KM12 colon and 3.56 µM in the assay with NCI/ADR-RES ovarian. Further, the TGI stood at 6.16 µM in the assay with NCI-H23 lung; 7.27 µM in the assay with SNB-75 CNS; 3.61 µM in the assay on SF-539 CNS; 5 µM with ACHN renal; 12.4 µM in the assay with NCI-H226 lung; 10.6 µM in the assay with SNB-19 CNS. Moreover, the TGI came out at 16.3 µM in the assay on EKVX NSCLC, 4.28 µM in the assay with MDA-MB-231 breast, 4.29 µM with KM12 colon and 11.9 µM in the assay on NCI/ADR-RES ovarian.
For the molecule `CC(=O)Nc1ccc2c(c1)[nH]c(=O)c1cc(Cl)ccc12`, the TGI was over 100 µM with NCI-H23 lung; over 100 µM in the assay on SNB-75 CNS; over 100 µM in the assay on SF-539 CNS; over 100 µM in the assay with ACHN renal; 90.4 µM in the assay on NCI-H226 lung; over 100 µM with SNB-19 CNS. Also, the TGI in the assay on EKVX NSCLC, with MDA-MB-231 breast, in the assay with KM12 colon and in the assay with NCI/ADR-RES ovarian was over 100 µM each time.
As to `O=C(Nc1ccc(-n2cc(-c3ccncc3)c(-c3ccc(Cl)c(O)c3)n2)cc1)c1ccc(Cl)c(Cl)c1`, the GI50 was 4.18 µM with NCI-H23 lung; 3.92 µM in the assay on SNB-75 CNS; 0.694 µM in the assay on SF-539 CNS; 4.2 µM with ACHN renal; 26.1 µM in the assay with NCI-H226 lung; over 100 µM in the assay on SNB-19 CNS. In addition, the GI50 in the assay with EKVX NSCLC was 5.81 µM; in the assay with MDA-MB-231 breast, 1.17 µM; in the assay with KM12 colon, 3.05 µM; in the assay with NCI/ADR-RES ovarian, 4.91 µM. The TGI in the assay with NCI-H23 lung, with SNB-75 CNS, with SF-539 CNS, in the assay on ACHN renal, in the assay on NCI-H226 lung and in the assay on SNB-19 CNS was over 100 µM throughout. The TGI in the assay with EKVX NSCLC, with MDA-MB-231 breast, in the assay with KM12 colon and in the assay on NCI/ADR-RES ovarian was over 100 µM each time.
As for `Nc1nc2c([nH]1)c1[nH]c3ccccc3c1c1[nH]c3ccccc3c21`, the GI50 in the assay with NCI-H23 lung was 13.7 µM; in the assay with SNB-75 CNS, 11.9 µM; with SF-539 CNS it was 12.8 µM; with ACHN renal, 12 µM; in the assay on NCI-H226 lung, 19.8 µM; with SNB-19 CNS it was 12.8 µM. For the same molecule, the GI50 in the assay with EKVX NSCLC is 14.1 µM; with MDA-MB-231 breast it was 4.39 µM; in the assay with KM12 colon, 6.91 µM; with NCI/ADR-RES ovarian it was 18.9 µM. Also, the TGI was found to be 29.5 µM in the assay with NCI-H23 lung; 25.1 µM in the assay on SNB-75 CNS; 25.6 µM with SF-539 CNS; 24.4 µM in the assay with ACHN renal; 45.5 µM in the assay with NCI-H226 lung; 25.5 µM in the assay on SNB-19 CNS. For the same molecule, the TGI in the assay on EKVX NSCLC is 30.8 µM; with MDA-MB-231 breast, 16.9 µM; in the assay with KM12 colon it was 21.2 µM; in the assay on NCI/ADR-RES ovarian it was 45.1 µM.
On to `COc1ccc(-c2nc3sccn3c2/C=C/C(=O)c2cc(OC)c(OC)c(OC)c2)cc1`, for which the GI50 was 2.49 µM with NCI-H23 lung; 1.3 µM in the assay on SNB-75 CNS; 1.79 µM in the assay on SF-539 CNS; 3.45 µM in the assay on ACHN renal; 2.95 µM with NCI-H226 lung; 3.32 µM in the assay with SNB-19 CNS. In addition, the GI50 in the assay with EKVX NSCLC is 3.1 µM; in the assay with MDA-MB-231 breast it was 3.28 µM; with KM12 colon, 2.56 µM; with NCI/ADR-RES ovarian, 2.66 µM. The TGI with NCI-H23 lung is over 28.7 µM; in the assay with SNB-75 CNS, over 20.7 µM; with SF-539 CNS, 4.96 µM; in the assay on ACHN renal, over 60.9 µM; in the assay with NCI-H226 lung it was over 35 µM; in the assay on SNB-19 CNS, over 100 µM. In addition, the TGI is over 100 µM in the assay on EKVX NSCLC, over 100 µM in the assay on MDA-MB-231 breast, 7.75 µM in the assay with KM12 colon and over 28 µM in the assay with NCI/ADR-RES ovarian.
